Holding throughout (format): biochemical
Assay [1] deals with T1, human JAK2 (a.a. 828-1132) (Homo sapiens, UniProt O60674).
T1 construct: JAK2 (a.a. 828-1132); His tag (N); made in house; host or cells: insect cells (baculovirus)
In words: In vitro JAK kinase assay (HTRF, phosphorylation of a biotinylated peptide), JAK2. In short, it runs like this:
(§1)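 Kinase activity was measured as phosphorylation of a biotinylated peptide, with ATP at 90 μM for JAK1, 30 μM for JAK2 and 3 μM for JAK3. Reactions ran 1 hr at room temperature, were stopped with EDTA plus SA-APC and Eu-Py20, and were read by HTRF after 40 minutes of antibody binding.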
A general note: In TR-FRET formats the signal depends on donor and acceptor labels being close together.

The target in assay [2] is TYK2 (Homo sapiens, UniProt P29597). In words: TYK2 kinase inhibition (Table A1).
Sequence of TYK2 (P29597 whole entry): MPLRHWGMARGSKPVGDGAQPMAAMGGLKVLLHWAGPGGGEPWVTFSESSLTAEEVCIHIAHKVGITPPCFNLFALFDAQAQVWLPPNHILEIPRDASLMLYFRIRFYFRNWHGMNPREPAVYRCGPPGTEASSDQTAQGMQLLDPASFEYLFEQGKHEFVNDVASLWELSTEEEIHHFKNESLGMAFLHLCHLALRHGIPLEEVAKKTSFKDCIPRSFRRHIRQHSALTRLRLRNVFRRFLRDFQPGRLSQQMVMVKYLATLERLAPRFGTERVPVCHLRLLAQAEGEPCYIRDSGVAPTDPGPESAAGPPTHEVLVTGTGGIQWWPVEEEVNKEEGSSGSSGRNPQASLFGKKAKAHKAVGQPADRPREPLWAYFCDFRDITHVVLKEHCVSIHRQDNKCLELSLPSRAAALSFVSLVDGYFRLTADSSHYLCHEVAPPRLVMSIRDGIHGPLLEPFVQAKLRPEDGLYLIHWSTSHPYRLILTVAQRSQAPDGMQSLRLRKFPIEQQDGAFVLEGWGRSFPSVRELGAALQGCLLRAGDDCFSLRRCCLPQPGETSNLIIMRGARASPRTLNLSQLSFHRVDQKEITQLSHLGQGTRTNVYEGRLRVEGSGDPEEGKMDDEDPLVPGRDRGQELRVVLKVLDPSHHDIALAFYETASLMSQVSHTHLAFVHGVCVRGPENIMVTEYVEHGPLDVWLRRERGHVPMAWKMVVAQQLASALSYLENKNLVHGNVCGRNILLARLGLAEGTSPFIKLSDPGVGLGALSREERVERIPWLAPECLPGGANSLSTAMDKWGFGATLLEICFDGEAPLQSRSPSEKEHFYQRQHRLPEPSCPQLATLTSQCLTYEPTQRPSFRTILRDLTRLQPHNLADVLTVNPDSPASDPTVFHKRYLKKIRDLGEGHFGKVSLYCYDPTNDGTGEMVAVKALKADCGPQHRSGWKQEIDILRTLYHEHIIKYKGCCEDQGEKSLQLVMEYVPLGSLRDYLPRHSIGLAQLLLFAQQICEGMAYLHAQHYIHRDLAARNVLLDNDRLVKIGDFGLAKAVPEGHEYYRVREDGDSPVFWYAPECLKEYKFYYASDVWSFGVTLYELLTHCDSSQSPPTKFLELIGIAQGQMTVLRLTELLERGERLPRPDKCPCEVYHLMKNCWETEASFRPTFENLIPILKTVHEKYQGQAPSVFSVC
Assay [3] deals with T2, Recombinant Human Anaplastic Lymphoma Kinase (Homo sapiens, UniProt Q9UM73).
T2 construct: purchased Invitrogen, Carlsbad, Calif
T2 sequence (Q9UM73 19-1620): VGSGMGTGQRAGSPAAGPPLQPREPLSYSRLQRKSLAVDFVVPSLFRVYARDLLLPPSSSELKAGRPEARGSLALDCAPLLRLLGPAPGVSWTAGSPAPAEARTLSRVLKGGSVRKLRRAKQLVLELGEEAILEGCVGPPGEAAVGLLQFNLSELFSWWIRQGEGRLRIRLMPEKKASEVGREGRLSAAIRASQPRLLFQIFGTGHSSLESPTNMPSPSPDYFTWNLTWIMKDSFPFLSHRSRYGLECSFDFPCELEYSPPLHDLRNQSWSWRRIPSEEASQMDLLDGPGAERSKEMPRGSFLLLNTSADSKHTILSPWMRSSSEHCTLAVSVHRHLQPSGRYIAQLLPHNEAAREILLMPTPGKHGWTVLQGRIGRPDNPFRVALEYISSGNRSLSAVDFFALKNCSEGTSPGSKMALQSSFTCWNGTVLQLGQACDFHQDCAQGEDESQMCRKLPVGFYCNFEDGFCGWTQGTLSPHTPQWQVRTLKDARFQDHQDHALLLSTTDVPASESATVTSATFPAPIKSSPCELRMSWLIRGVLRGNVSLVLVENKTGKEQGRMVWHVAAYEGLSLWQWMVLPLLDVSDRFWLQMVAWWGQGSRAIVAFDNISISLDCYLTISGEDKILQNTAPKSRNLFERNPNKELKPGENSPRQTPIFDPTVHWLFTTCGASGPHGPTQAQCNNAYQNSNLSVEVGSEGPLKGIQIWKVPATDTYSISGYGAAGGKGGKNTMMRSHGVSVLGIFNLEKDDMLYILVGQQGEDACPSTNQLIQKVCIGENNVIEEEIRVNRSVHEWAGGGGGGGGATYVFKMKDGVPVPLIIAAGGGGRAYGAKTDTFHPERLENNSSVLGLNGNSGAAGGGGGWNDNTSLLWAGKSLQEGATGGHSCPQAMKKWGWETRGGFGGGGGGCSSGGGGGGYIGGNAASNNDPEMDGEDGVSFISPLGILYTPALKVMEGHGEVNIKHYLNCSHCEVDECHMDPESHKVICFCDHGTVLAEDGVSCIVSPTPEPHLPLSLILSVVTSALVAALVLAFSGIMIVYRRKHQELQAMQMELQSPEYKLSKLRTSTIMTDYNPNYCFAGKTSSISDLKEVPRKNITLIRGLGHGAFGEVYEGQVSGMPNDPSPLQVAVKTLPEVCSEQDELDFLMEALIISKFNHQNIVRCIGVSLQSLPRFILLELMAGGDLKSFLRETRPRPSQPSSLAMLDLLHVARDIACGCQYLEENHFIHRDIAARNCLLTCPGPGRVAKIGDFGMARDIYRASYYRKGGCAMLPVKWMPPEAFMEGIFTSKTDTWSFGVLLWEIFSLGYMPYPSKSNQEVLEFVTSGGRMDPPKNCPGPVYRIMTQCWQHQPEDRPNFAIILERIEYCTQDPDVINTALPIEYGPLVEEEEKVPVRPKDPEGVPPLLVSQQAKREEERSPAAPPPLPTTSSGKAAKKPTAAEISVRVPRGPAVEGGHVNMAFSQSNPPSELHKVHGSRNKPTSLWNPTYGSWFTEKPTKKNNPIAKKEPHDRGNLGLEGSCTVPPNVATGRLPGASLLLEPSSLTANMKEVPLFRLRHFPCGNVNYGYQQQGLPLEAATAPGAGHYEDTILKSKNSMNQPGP
As to the kind of experiment: ALK HTRF kinase assay. Particulars: for IC50: Table B1, cells without percent sign. In short, it runs like this:
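Compounds were incubated with recombinant human ALK and a biotin-tagged peptide substrate. Product was captured with streptavidin-APC and probed with a europium anti-phosphotyrosine antibody, and plates were read for time-resolved fluorescence. Dose-response data were fitted to derive IC50.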

For assay [4], the target named is T3, human JAK1 (a.a. 837-1142) (Homo sapiens, UniProt P23458).
T3 construct: human JAK1 (a.a. 837-1142); His tag (N); made in house; host or cells: insect cells (baculovirus)
T3 sequence (P23458 849-1154): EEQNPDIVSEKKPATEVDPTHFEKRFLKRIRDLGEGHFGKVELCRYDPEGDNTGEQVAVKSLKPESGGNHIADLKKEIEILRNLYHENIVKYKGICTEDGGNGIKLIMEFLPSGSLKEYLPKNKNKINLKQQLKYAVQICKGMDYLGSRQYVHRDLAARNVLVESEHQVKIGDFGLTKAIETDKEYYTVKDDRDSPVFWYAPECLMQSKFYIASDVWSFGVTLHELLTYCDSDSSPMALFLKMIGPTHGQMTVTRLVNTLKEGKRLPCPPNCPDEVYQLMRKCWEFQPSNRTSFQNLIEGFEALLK
As to the kind of experiment: In vitro JAK kinase assay (HTRF, phosphorylation of a biotinylated peptide), JAK1. As to conditions: read-out: JAK1 IC50. In short, it runs like this: as §1

Assay [5] concerns the target T4, human JAK3 (a.a. 781-1124) (Homo sapiens, UniProt P52333).
T4 construct: JAK3 (a.a. 781-1124); His tag (N); made in house; host or cells: insect cells (baculovirus)
In words: In vitro JAK kinase assay (HTRF, phosphorylation of a biotinylated peptide), JAK3. Summed up:
as §1

Setting [6] is: compound at a concentration of 500 nM or 1 mM (not specified), cells shown as percentage.
[7] abbreviates: method AA1 (30 μM ATP) or AA2 (1000 μM ATP), not stated per value.
The mark [8] stands for this setting: compound at 500 nM or 1 mM, 90 μM ATP.
Setting [9] is: method AA1 (90 μM ATP) or AA2 (1000 μM ATP), not stated per value.
The mark [10] stands for this setting: method AA1 (3 μM ATP) or AA2 (1000 μM ATP), not stated per value.

Where a name gives a salt, the structure may show the parent alone. Read-outs that look alike come from different tables or passages of the source. A value given as a limit tells only on which side of the number the result lay.

T4 sequence (P52333 781-1124): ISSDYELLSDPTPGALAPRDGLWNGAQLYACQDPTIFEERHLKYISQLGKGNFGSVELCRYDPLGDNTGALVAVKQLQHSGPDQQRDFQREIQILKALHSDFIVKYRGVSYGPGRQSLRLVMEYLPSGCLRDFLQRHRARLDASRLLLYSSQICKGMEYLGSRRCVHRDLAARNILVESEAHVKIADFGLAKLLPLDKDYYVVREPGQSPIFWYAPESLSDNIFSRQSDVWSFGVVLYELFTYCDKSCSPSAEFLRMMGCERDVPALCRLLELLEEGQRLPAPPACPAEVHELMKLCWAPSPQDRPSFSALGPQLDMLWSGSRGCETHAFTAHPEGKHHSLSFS
T1 sequence (O60674 828-1132): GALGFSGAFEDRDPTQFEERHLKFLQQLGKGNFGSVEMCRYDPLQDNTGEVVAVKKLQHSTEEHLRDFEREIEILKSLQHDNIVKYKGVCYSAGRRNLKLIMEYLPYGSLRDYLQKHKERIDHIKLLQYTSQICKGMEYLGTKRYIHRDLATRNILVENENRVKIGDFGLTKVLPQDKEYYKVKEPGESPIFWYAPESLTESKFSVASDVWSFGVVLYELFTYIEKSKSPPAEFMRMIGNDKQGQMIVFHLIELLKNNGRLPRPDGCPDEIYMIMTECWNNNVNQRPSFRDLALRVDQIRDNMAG

For `N#Cc1ccc(C(=O)Nc2ccc3cc2CCc2cccc(c2)Nc2ncc(Cl)c(n2)N3)cc1` [Example B64, N-[6-Chloro-2,4,8,22-tetraazatetracyclo[14.3.1.1(3,7).1(9,13)]docosa-1(20), 3(22),4,6,9(21),10,12,16,18-nonaen-12-yl]-4-cyanobenzamide trifluoroacetate], the IC50 was 0.73 nM in assay [1] (Table B1); 3.2 nM in assay [2] (Table B1); 150 nM in assay [3]; 1.2 nM in assay [4] (Table B1); 10 nM in assay [5] (Table B1).

As for `N#Cc1ccc(NC(=O)Nc2cc3cc(c2)Nc2nc(ncc2Cl)Nc2cccc(c2)CC3)cc1` [Example B212, N-[6-Chloro-2,4,8,22-tetraazatetracyclo[14.3.1.1(3,7).1(9,13)]docosa-1(20),3(22),4,6,9(21),10,12,16,18-nonaen-11-yl]-N′-(4-cyanophenyl)urea trifluoroacetate], the IC50 in assay [1] (Table B1) turned out to be 238 nM; in assay [2] (Table B1) it was 500 nM; in assay [4] (Table B1), 400 nM; in assay [5] (Table B1) it was 312 nM. Further, the “ALK % of inhibition at a concentration of 500 nM or 1 mM” value (“ALK % of inhibition” for short) in assay [3] (setting [6]) is 14%.

In the case of `O=C(Nc1cc2cc(c1)Nc1nc(ncc1Cl)Nc1cccc(c1)CC2)c1ccccn1` [Example B201, N-[6-Chloro-2,4,8,22-tetraazatetracyclo[14.3.1.1(3,7).1(9,13)]docosa-1(20),3(22),4,6,9(21),10,12,16,18-nonaen-11-yl]pyridine-2-carboxamide trifluoroacetate], the IC50 is 410 nM in assay [1] (Table B1); more than 1000 nM in assay [2] (Table B1); more than 10000 nM in assay [3]; 119 nM in assay [4] (Table B1); 454 nM in assay [5] (Table B1).

As to `O=C(Nc1ccc2cc1CCc1cccc(c1)Nc1ncc(Cl)c(n1)N2)C1CCCC1` [Example B60, N-[6-Chloro-2,4,8,22-tetraazatetracyclo[14.3.1.1(3,7).1(9,13)]docosa-1(20), 3(22),4,6,9(21),10,12,16,18-nonaen-12-yl]cyclopentanecarboxamide trifluoroacetate], the half-maximal inhibitory concentration (IC50) was 8.4 nM in assay [1] (Table B1); 47 nM in assay [2] (Table B1); more than 1000 nM in assay [3]; 22 nM in assay [4] (Table B1); 20 nM in assay [5] (Table B1).

As for `CC(C)(C)OC(=O)N1CC[C@@H](NCc2ccc3cc2CCc2cccc(c2)Nc2ncc(Cl)c(n2)N3)C1` [Example B219, tert-Butyl (3R)-3-({[6-chloro-2,4,8,22-tetraazatetracyclo[14.3.1.1(3,7).1(9,13)]docosa-1(20),3(22),4,6,9(21),10,12,16,18-nonaen-12-yl]methyl}amino)pyrrolidine-1-carboxylate bis(trifluoroacetate)], the IC50 was found to be 16 nM in assay [1] (Table B1), 29 nM in assay [2] (Table B1), 6.6 nM in assay [4] (Table B1) and 29 nM in assay [5] (Table B1). Also, the “ALK % of inhibition” value in assay [3] (setting [6]) amounted to 26%.

Consider `O=C(Nc1ccc2cc1CCc1cccc(c1)Nc1ncc(Cl)c(n1)N2)NC1CCCNC1` (stereo not shown) [Example B238, N-[6-Chloro-2,4,8,22-tetraazatetracyclo[14.3.1.1(3,7).1(9,13)]docosa-1(20),3(22),4,6,9(21),10,12,16,18-nonaen-12-yl]-N′-piperidin-3-ylurea bis(trifluoroacetate)], for which the IC50 in assay [1] (Table B1) amounted to 17 nM; in assay [2] (Table B1) it was 50 nM; in assay [4] (Table B1), 8.1 nM; in assay [5] (Table B1), 274 nM. Also, in assay [3] (setting [6]), the “ALK % of inhibition” value amounted to 15%.

Consider `O=C(CC1CCN(C(=O)c2cccnc2)CC1)Nc1ccc2cc1CCc1cncc(c1)Nc1ncc(Cl)c(n1)N2` [Example A188, N-[6-Chloro-2,4,8,18,22-pentaazatetracyclo[14.3.1.1(3,7).1(9,13)]docosa-1(20),3(22),4,6,9(21),10,12,16,18-nonaen-12-yl]-2-[1-(pyridin-3-ylcarbonyl)piperidin-4-yl]acetamide tris(trifluoroacetate)], for which the IC50 was more than 200 nM in assay [1] (setting [7]), more than 200 nM in assay [2], 34 nM in assay [4] (setting [9]) and more than 200 nM in assay [5] (setting [10]). In addition, in assay [3] (setting [8]), the “ALK % of inhibition” value came out at 26%.

As for `Cc1oncc1C(=O)N1CCC(NC(=O)Nc2ccc3cc2CCc2cccc(c2)Nc2ncc(Cl)c(n2)N3)CC1` [Example B264, N-[6-chloro-2,4,8,22-tetraazatetracyclo[14.3.1.1(3,7).1(9,13)]docosa-1(20),3(22),4,6,9(21),10,12,16,18-nonaen-12-yl]-N′-{1-[(5-methylisoxazol-4-yl)carbonyl]piperidin-4-yl}urea trifluoroacetate], the IC50 in assay [1] (Table B1) worked out at 25 nM; in assay [2] (Table B1) it was 54 nM; in assay [4] (Table B1), 14 nM; in assay [5] (Table B1), 216 nM. Also, the “ALK % of inhibition” value in assay [3] (setting [6]) is 27%.

For `CCCC(=O)Nc1ccc2cc1CCc1cccc(c1)Nc1ncc(Cl)c(n1)N2` [Example B56, N-[6-Chloro-2,4,8,22-tetraazatetracyclo[14.3.1.1(3,7).1(9,13)]docosa-1(20), 3(22),4,6,9(21),10,12,16,18-nonaen-12-yl]butanamide trifluoroacetate], the IC50 in assay [1] (Table B1) came to 2 nM; in assay [2] (Table B1), 14 nM; in assay [3] it was 720 nM; in assay [4] (Table B1), 5.9 nM; in assay [5] (Table B1), 1.5 nM.

For the molecule `Cc1ncoc1C(=O)N1CC[C@H](NC(=O)Nc2ccc3cc2CCc2cncc(c2)Nc2ncc(Cl)c(n2)N3)C1` [Example B273, N-[6-Chloro-2,4,8,18,22-pentaazatetracyclo[14.3.1.1(3,7).1(9,13)]docosa-1(20),3(22),4,6,9(21),10,12,16,18-nonaen-12-yl]-N′-{(3S)-1-[(4-methyl-1,3-oxazol-5-yl)carbonyl]pyrrolidin-3-yl}urea bis(trifluoroacetate)], the IC50 in assay [1] (Table B1) was 1630 nM; in assay [2] (Table B1), 3830 nM; in assay [4] (Table B1), 117 nM; in assay [5] (Table B1), more than 10000 nM. Also, in assay [3] (setting [6]), the “ALK % of inhibition” value is 3.2%.

As to `O=S(=O)(Nc1ccc2cc1CCc1cccc(c1)Nc1ncc(Cl)c(n1)N2)c1ccccc1` [Example B136, N-[6-Chloro-2,4,8,22-tetraazatetracyclo[14.3.1.1(3,7).1(9,13)]docosa-1(20), 3(22),4,6,9(21),10,12,16,18-nonaen-12-yl]benzenesulfonamide trifluoroacetate], the IC50 in assay [1] (Table B1) is 0.1 nM; in assay [2] (Table B1) it was 0.76 nM; in assay [3] it was 240 nM; in assay [4] (Table B1), 0.24 nM; in assay [5] (Table B1), 2.3 nM.

Turning to `CC(C)(C)NC(=O)N1CCC(CC(=O)Nc2ccc3cc2CCc2cccc(c2)Nc2ncc(Cl)c(n2)N3)CC1` [Example A85, N-(tert-Butyl)-4-(2-{[6-chloro-2,4,8,22-tetraazatetracyclo[14.3.1.1(3,7).1(9,13)]docosa-1(20),3(22),4,6,9(21),10,12,16,18-nonaen-12-yl]amino}-2-oxoethyl)piperidine-1-carboxamide trifluoroacetate], the IC50 came to 13 nM in assay [1] (setting [7]), 33 nM in assay [2], 49 nM in assay [4] (setting [9]) and 147 nM in assay [5] (setting [10]). In assay [3] (setting [8]), the “ALK % of inhibition” value was 19%.

As for `O=C(CN1CCN(c2nc3cccnc3o2)CC1)Nc1ccc2cc1CCc1cncc(c1)Nc1ncc(Cl)c(n1)N2` [Example A118, N-[6-Chloro-2,4,8,18,22-pentaazatetracyclo[14.3.1.1(3,7).1(9,13)]docosa-1(20),3(22),4,6,9(21),10,12,16,18-nonaen-12-yl]-2-(4-[1,3]oxazolo[5,4-b]pyridin-2-ylpiperazin-1-yl)acetamide tris(trifluoroacetate)], the IC50 worked out at 16 nM in assay [1] (setting [7]), 20 nM in assay [2], 0.9 nM in assay [4] (setting [9]) and 150 nM in assay [5] (setting [10]). Besides, the “ALK % of inhibition” value in assay [3] (setting [8]) is 29%.

Turning to `CN(Cc1ccc2cc1CCc1cncc(c1)Nc1ncc(Cl)c(n1)N2)C(=O)C1CCN(C(=O)c2ccno2)CC1` [Example B336, N-{[6-Chloro-2,4,8,18,22-pentaazatetracyclo[14.3.1.1(3,7).1(9,13)]docosa-1(20),3(22),4,6,9(21),10,12,16,18-nonaen-12-yl]methyl}-1-(isoxazol-5-ylcarbonyl)-N-methylpiperidine-4-carboxamide bis(trifluoroacetate)], the IC50 in assay [1] (Table B1) was 140 nM; in assay [2] (Table B1) it was more than 200 nM; in assay [4] (Table B1), 52 nM; in assay [5] (Table B1) it was more than 200 nM. Also, the “ALK % of inhibition” value in assay [3] (percentage inhibition of the example compound at a concentration of 500 nM or 1 mM (not specified which)) is 11%.

The IC50 is the concentration needed to halve the response being measured.

The values are drawn from patent US8871753B2, “Macrocyclic compounds and their use as kinase inhibitors” (Incyte Corporation, priority 2008, dated 2014).
